# According to patent EP0908457B1, “3-(1,2-benzisothiazol- and isoxazol-5-Y1)-2,4(1H,3H)-pyrimidinedione or thione and 3-(1,2-benzisothiazol- and isoxazol-5-y1)-4(3H)-pyrimidinone or thione herbicidal agents” (BASF AKTIENGESELLSCHAFT, priority 1997, dated 1999):
# What was measured:
# [1] = system: Echinochloa oryzoides (Ard.) Fritsch.; experiment: Preemergence weed control under flooded paddy conditions, ECHORC (Watergrass (Calif.)); format: in vivo; settings: flooded paddy; for herbicidal effect rating, ECHORC: preemergence, rated three to four weeks after treatment; for ECHORC: preemergence weeds, herbicidal effect rating 0-9, three to four weeks after treatment
# Cyperus iria = experiment: Preemergence weed control under flooded paddy conditions, CYPIR (Rice Flatsedge); format: in vivo; settings: flooded paddy; for herbicidal effect rating, CYPIR: preemergence, rated three to four weeks after treatment; for CYPIR: preemergence weeds, herbicidal effect rating 0-9, three to four weeks after treatment
# [2] = system: Cyperus serotinus, Rottb.; experiment: Preemergence weed control under flooded paddy conditions, CYPSE (Flatsedge); format: in vivo; settings: for herbicidal effect rating, CYPSE: preemergence, rated three to four weeks after treatment; for CYPSE: preemergence weeds, herbicidal effect rating 0-9, three to four weeks after treatment
# [3] = system: Monochoria vaginalis, Presl.; experiment: Preemergence weed control under flooded paddy conditions, MOOVA (Monochoria); format: in vivo; settings: flooded paddy; for herbicidal effect rating, MOOVA: preemergence, rated three to four weeks after treatment; for MOOVA: preemergence weeds, herbicidal effect rating 0-9, three to four weeks after treatment
# Sagittaria pygmaea, L. = experiment: Preemergence weed control under flooded paddy conditions, SAGPY (Arrowhead (Pygmaea)); format: in vivo; settings: flooded paddy; for herbicidal effect rating, SAGPY: preemergence, rated three to four weeks after treatment; for SAGPY: preemergence weeds, herbicidal effect rating 0-9, three to four weeks after treatment
# [4] = system: Oryza sativa, (L.) Tebonnet; experiment: Rice tolerance to post-transplant applications under flooded paddy conditions (Example 187), ORYSAT (Rice, Tebonnet); settings: for herbicidal effect rating ORYSAT: rated three to four weeks after treatment; for ORYSAT: herbicidal effect rating 0-9, three to four weeks after treatment; on herbicidal effect rating ORYSAT: meaning of each grade not given here
smiles,measurement,setting,value
"COCCOCCOC(=O)c1nsc2ccc(-n3c(=O)cc(C(F)(F)F)n(C)c3=O)cc12 [Example 389, 1,2-Benzisothiazole-3-carboxylic acid, 5-[3,6-dihydro-3-methyl-2,6-dioxo-4-(trifluoromethyl)-1(2H)-pyrimidinyl]-, 2-(2-methoxyethoxy)ethyl ester]","herbicidal effect rating, ECHORC",[1]; Rate 0.0320 kg/ha,3.0
same,"herbicidal effect rating, ECHORC",[1]; Rate 0.0620 kg/ha,4.0
same,"herbicidal effect rating, ECHORC",[1]; Rate 0.1250 kg/ha,4.0
same,"herbicidal effect rating, ECHORC",[1]; Rate 0.2500 kg/ha,7.0
same,"herbicidal effect rating, CYPIR",Cyperus iria; Rate 0.0320 kg/ha,5.0
same,"herbicidal effect rating, CYPIR",Cyperus iria; Rate 0.0620 kg/ha,5.0
same,"herbicidal effect rating, CYPIR",Cyperus iria; Rate 0.1250 kg/ha,7.0
same,"herbicidal effect rating, CYPIR",Cyperus iria; Rate 0.2500 kg/ha,9.0
same,"herbicidal effect rating, CYPSE",[2]; Rate 0.0320 kg/ha,0.0
same,"herbicidal effect rating, CYPSE",[2]; Rate 0.1250 kg/ha,7.0
same,"herbicidal effect rating, CYPSE",[2]; Rate 0.2500 kg/ha,8.0
same,"herbicidal effect rating, MOOVA",[3]; Rate 0.0320 kg/ha,7.0
same,"herbicidal effect rating, MOOVA",[3]; Rate 0.0620 kg/ha,9.0
same,"herbicidal effect rating, MOOVA",[3]; Rate 0.1250 kg/ha,9.0
same,"herbicidal effect rating, MOOVA",[3]; Rate 0.2500 kg/ha,9.0
same,"herbicidal effect rating, SAGPY","Sagittaria pygmaea, L.; Rate 0.0320 kg/ha",3.0
same,"herbicidal effect rating, SAGPY","Sagittaria pygmaea, L.; Rate 0.0620 kg/ha",4.0
same,"herbicidal effect rating, SAGPY","Sagittaria pygmaea, L.; Rate 0.1250 kg/ha",7.0
same,"herbicidal effect rating, SAGPY","Sagittaria pygmaea, L.; Rate 0.2500 kg/ha",9.0
same,herbicidal effect rating ORYSAT,[4]; Rate 0.0320 kg/ha,3.0
same,herbicidal effect rating ORYSAT,[4]; Rate 0.0620 kg/ha,4.0
same,herbicidal effect rating ORYSAT,[4]; Rate 0.1250 kg/ha,4.0
same,herbicidal effect rating ORYSAT,[4]; Rate 0.2500 kg/ha,5.0
"Cn1c(C(F)(F)F)cc(=O)n(-c2ccc3snc(C(=O)NS(=O)(=O)c4cccs4)c3c2)c1=O [Example 391, 1,2-Benzisothiazole-3-carboxamide, 5-[3,6-dihydro-3-methyl-2,6-dioxo-4-(trifluoromethyl)-1(2H)-pyrimidinyl]-N-(2-thienylsulfonyl)-]","herbicidal effect rating, ECHORC",[1]; Rate 0.0320 kg/ha,0.0
same,"herbicidal effect rating, ECHORC",[1]; Rate 0.0620 kg/ha,0.0
same,"herbicidal effect rating, ECHORC",[1]; Rate 0.1250 kg/ha,2.0
same,"herbicidal effect rating, ECHORC",[1]; Rate 0.2500 kg/ha,4.0
same,"herbicidal effect rating, ECHORC",[1]; Rate 0.5000 kg/ha,6.0
same,"herbicidal effect rating, CYPIR",Cyperus iria; Rate 0.0320 kg/ha,3.0
same,"herbicidal effect rating, CYPIR",Cyperus iria; Rate 0.0620 kg/ha,3.0
same,"herbicidal effect rating, CYPIR",Cyperus iria; Rate 0.1250 kg/ha,4.0
same,"herbicidal effect rating, CYPIR",Cyperus iria; Rate 0.2500 kg/ha,6.0
same,"herbicidal effect rating, CYPIR",Cyperus iria; Rate 0.5000 kg/ha,9.0
same,"herbicidal effect rating, CYPSE",[2]; Rate 0.0320 kg/ha,0.0
same,"herbicidal effect rating, CYPSE",[2]; Rate 0.0620 kg/ha,0.0
same,"herbicidal effect rating, CYPSE",[2]; Rate 0.1250 kg/ha,0.0
same,"herbicidal effect rating, CYPSE",[2]; Rate 0.2500 kg/ha,0.0
same,"herbicidal effect rating, CYPSE",[2]; Rate 0.5000 kg/ha,3.0
same,"herbicidal effect rating, MOOVA",[3]; Rate 0.0320 kg/ha,6.0
same,"herbicidal effect rating, MOOVA",[3]; Rate 0.0620 kg/ha,9.0
same,"herbicidal effect rating, MOOVA",[3]; Rate 0.1250 kg/ha,9.0
same,"herbicidal effect rating, MOOVA",[3]; Rate 0.2500 kg/ha,9.0
same,"herbicidal effect rating, MOOVA",[3]; Rate 0.5000 kg/ha,9.0
same,"herbicidal effect rating, SAGPY","Sagittaria pygmaea, L.; Rate 0.0320 kg/ha",6.0
same,"herbicidal effect rating, SAGPY","Sagittaria pygmaea, L.; Rate 0.0620 kg/ha",6.0
same,"herbicidal effect rating, SAGPY","Sagittaria pygmaea, L.; Rate 0.1250 kg/ha",7.0
same,"herbicidal effect rating, SAGPY","Sagittaria pygmaea, L.; Rate 0.2500 kg/ha",7.0
same,"herbicidal effect rating, SAGPY","Sagittaria pygmaea, L.; Rate 0.5000 kg/ha",9.0
same,herbicidal effect rating ORYSAT,[4]; Rate 0.0320 kg/ha,2.0
same,herbicidal effect rating ORYSAT,[4]; Rate 0.0620 kg/ha,2.0
same,herbicidal effect rating ORYSAT,[4]; Rate 0.1250 kg/ha,3.0
same,herbicidal effect rating ORYSAT,[4]; Rate 0.2500 kg/ha,3.0
same,herbicidal effect rating ORYSAT,[4]; Rate 0.5000 kg/ha,3.0
"Cn1c(C(F)(F)F)cc(=O)n(-c2ccc3snc(C(=O)NS(=O)(=O)Cc4ccccc4[N+](=O)[O-])c3c2)c1=O [Example 404, 1,2-Benzisothiazole-3-carboxamide, 5-[3,6-dihydro-3-methyl-2,6-dioxo-4-(trifluoromethyl)-1(2H)-pyrimidinyl]-N-[(o-nitrobenzyl)sulfonyl]-]",ECHORC,[1]; 0.0320 kg/ha,0.0
same,ECHORC,[1]; 0.0620 kg/ha,3.0
same,ECHORC,[1]; 0.1250 kg/ha,6.0
same,ECHORC,[1]; 0.2500 kg/ha,7.0
same,CYPIR,Cyperus iria; 0.0320 kg/ha,0.0
same,CYPIR,Cyperus iria; 0.0620 kg/ha,0.0
same,CYPIR,Cyperus iria; 0.1250 kg/ha,2.0
same,CYPIR,Cyperus iria; 0.2500 kg/ha,6.0
same,CYPSE,[2]; 0.0320 kg/ha,0.0
same,CYPSE,[2]; 0.0620 kg/ha,0.0
same,CYPSE,[2]; 0.1250 kg/ha,0.0
same,CYPSE,[2]; 0.2500 kg/ha,0.0
same,MOOVA,[3]; 0.0320 kg/ha,4.0
same,MOOVA,[3]; 0.0620 kg/ha,5.0
same,MOOVA,[3]; 0.1250 kg/ha,5.0
same,MOOVA,[3]; 0.2500 kg/ha,6.0
same,SAGPY,"Sagittaria pygmaea, L.; 0.0320 kg/ha",0.0
same,SAGPY,"Sagittaria pygmaea, L.; 0.0620 kg/ha",0.0
same,SAGPY,"Sagittaria pygmaea, L.; 0.1250 kg/ha",0.0
same,SAGPY,"Sagittaria pygmaea, L.; 0.2500 kg/ha",0.0
same,ORYSAT,[4]; 0.0320 kg/ha,0.0
same,ORYSAT,[4]; 0.0620 kg/ha,0.0
same,ORYSAT,[4]; 0.1250 kg/ha,0.0
same,ORYSAT,[4]; 0.2500 kg/ha,2.0
"Cn1c(C(F)(F)F)cc(=O)n(-c2ccc3snc(C(=O)NS(=O)(=O)Cc4ccc(C(C)(C)C)cc4)c3c2)c1=O [Example 405, 1,2-Benzisothiazole-3-carboxamide, N-[(p-tert-butylbenzyl)sulfonyl]-5-[3,6-dihydro-3-methyl-2,6-dioxo-4-(trifluoromethyl)-1(2H)-pyrimidinyl]-]",ECHORC,[1]; 0.0320 kg/ha,7.0
same,ECHORC,[1]; 0.0620 kg/ha,7.0
same,ECHORC,[1]; 0.1250 kg/ha,9.0
same,ECHORC,[1]; 0.2500 kg/ha,9.0
same,CYPIR,Cyperus iria; 0.0320 kg/ha,4.0
same,CYPIR,Cyperus iria; 0.0620 kg/ha,4.0
same,CYPIR,Cyperus iria; 0.1250 kg/ha,7.0
same,CYPIR,Cyperus iria; 0.2500 kg/ha,8.0
same,CYPSE,[2]; 0.0320 kg/ha,0.0
same,CYPSE,[2]; 0.0620 kg/ha,0.0
same,CYPSE,[2]; 0.1250 kg/ha,0.0
same,CYPSE,[2]; 0.2500 kg/ha,0.0
same,MOOVA,[3]; 0.0320 kg/ha,6.0
same,MOOVA,[3]; 0.0620 kg/ha,6.0
same,MOOVA,[3]; 0.1250 kg/ha,7.0
same,MOOVA,[3]; 0.2500 kg/ha,7.0
same,SAGPY,"Sagittaria pygmaea, L.; 0.0320 kg/ha",0.0
same,SAGPY,"Sagittaria pygmaea, L.; 0.0620 kg/ha",0.0
same,SAGPY,"Sagittaria pygmaea, L.; 0.1250 kg/ha",5.0
same,SAGPY,"Sagittaria pygmaea, L.; 0.2500 kg/ha",6.0
same,ORYSAT,[4]; 0.0320 kg/ha,0.0
same,ORYSAT,[4]; 0.0620 kg/ha,0.0
same,ORYSAT,[4]; 0.1250 kg/ha,2.0
same,ORYSAT,[4]; 0.2500 kg/ha,2.0
